In paper PMC4349624, “In vitro synergistic effect of fluoroquinolone analogues in combination with artemisinin against Plasmodium falciparum; their antiplasmodial action in rodent malaria model” (Malaria Journal, 2015):
Values after ≈ are worked out from the molar mass of the structure shown. Values joined by “and” are separate entries in the source; they are usually repeats but may differ in a detail not shown here. Equal entries are not always repeated. “Also recorded” adds a separate entry of the source. Where two headings read alike, the source gives them in different places.

Assays:
[1] = tested on: Plasmodium falciparum 3D7 strain; assay: antiplasmodial interaction assay, fixed-ratio combination isobologram method with artemisinin; assay type: cell-based; details: for Mean ƩFIC ± SD: combination with artemisinin, over the fixed-ratio combinations; for antiplasmodial interaction with artemisinin (in words): four fixed-ratio combinations, in vitro; for Drug B Mean FIC50 ± SE: n = 3
Method: Stock culture of malaria parasite P. falciparum 3D7 strain (chloroquine sensitive) was continuously maintained in vitro using a CO2 incubator under low-oxygen concentration (3%) and high carbon dioxide atmosphere (4%) along with nitrogen (93%), incubated at a temperature of 37°C. The parasites were maintained on O^+ human red blood cells suspended in a complete culture medium. Each litre of RPMI-1640 aqueous culture medium was prepared with 10.4 g of powdered RPMI-1640 (with glutamine but without sodium bicarbonate), 5.94 g of HEPES buffer, 1 g of dextrose and 40 mg of gentamicin. Complete medium was constituted just before use by adding sterile 5% sodium bicarbonate at the rate of 4 ml per 96 ml, and supplemented with 10% (v/v) pooled O^+ human serum. Infected erythrocytes were suspended in this culture media initiated at a haematocrit value of 5% and parasitemia was kept between 2 and 4% with sub-culturing done beyond 5%. Medium was changed once a day and percentage parasitemia was monitored using Giemsa stained slides.
Artemisinin (Sigma Aldrich, USA) was prepared in DMSO to get the stock solution of 1 mg/ml strength. Compounds 10, 12 and 18 were synthesized according to the procedure described by Dixit et al. and each compound was made to strength of 1 mg/ml stock solution in DMSO. The stock solutions were diluted on the day of experiment to get the desired concentrations for each compound. The highest amount of DMSO in diluted concentrations was 0.125%, and had no effect on parasite growth.
In each combination assay, two compounds (Compound A, artemisinin and Compound B, a fluoroquinolone derivative or norfloxacin) were combined in four fixed ratios (4:1, 3:2, 2:3, and 1:4).
Compound dilutions of each combination solution were made in sterile, flat-bottomed, 96-well tissue culture plates as described by Fivelman et al.. Six times two-fold serial dilution was done for each combination in triplicate. Each well contained a total volume of 200 μl of complete culture medium with or without compound and pre-synchronized infected red blood cells (1% parasitemia at 2.5% haematocrit). Control cultures (without compound) were maintained on the same plate in triplicate. Two 96-well plates (for six combinations) were used for each combination experiment. The plates were stacked in a CO2 incubator and incubated at 37°C for 48 hours.
After 48-hour incubation, thin blood smear slides were prepared, air dried, methanol fixed, and stained in Giemsa solution for 40 min. After staining, slides were removed from coupling jar, washed in running tap water and air dried. The Giemsa-stained slides were examined for counting the number of parasites in random adjacent microscopic fields, equivalent to about 4,000 erythrocytes at 1,000 × magnification. Per cent parasitemia was calculated. Reproducibility of counts was checked by two other readers to maintain the quality control.
For each combination assay, IC50 was calculated from two sets of concentration response graphs, each containing compound alone curve and four combination curves.
ƩFIC <1 represents synergism, ƩFIC > = 1 and <2 represents additive interaction, ƩFIC > = 2 and <4 represents slight antagonism while ƩFIC > = 4 represents marked antagonism.

BALB/c mice = assay: LD50 test; assay type: in vivo; details: ip
Method: Therapeutic Index (TI) values were determined by the formula: TherapeuticIndexTI=MedianlethaldoseLD50/MedianeffectivedoseED50

host cell = tested on: host cell; parameters: method as in PMID 22424611; details: read-out: in vitro host cell cytotoxicity IC50; cited from earlier work
[2] = tested on: 3D7 strain of P. falciparum; details: cited from earlier work
Plasmodium berghei ANKA = assay: Peters' four-day suppressive test in BALB/c mice; assay type: in vivo; details: ip, once daily days 0 to 3, BALB/c mice; n = 5
Text: Evaluation of the curative potential of the fluoroquinolone derivatives was done using the method described by Ryley and Peters, 1970 (rodent malaria four-day suppressive test; Peters’ four-day suppressive test). Rodent malaria parasite Plasmodium berghei ANKA was used.
[…] BALB/c inbred albino mice (25–30 g) of the male sex were obtained from the Animal Facility Centre of the Department of Zoology, University of Delhi. The animals were fed ad libitum with standard feed and had free access to water. They were maintained under standard conditions of humidity, temperature (25°C) and 12 hours light/darkness cycles. The animals were acclimatized for two weeks before the commencement of the study and were ensured to exclude all zoonotic agents.
Day 0: Heparinized blood was withdrawn from an infected donor mouse with approximately 25-30% parasitemia, and diluted in 1x PBS to 10^8 parasitized erythrocytes per mL. An aliquot of 0.2 mL (=2 × 10^7 parasitized erythrocytes) of this suspension was injected intraperitoneally (ip) into experimental groups of five mice each. One to three hours post-infection, the experimental groups were treated with varying doses of each of the test compounds (0.5, 1, 10, 25 mg/kg BW) by the ip route. Each compound was made to strength of 5 mg/ml stock solution in 10% DMSO and administered according to desired concentration and individual body weight. Artemisinin was given to the standard drug group and 0.2 mL of normal saline to the negative control group.
Day 1, 2 and 3: 24 hours, 48 hours and 72 hours post-infection, the experimental groups of mice were treated again with the same dose and by the same route as on day 0.
Day 4: 24 hours after the last treatment (i.e., 96 hours post-infection), blood was drawn from the tail region of mice and smears were prepared. […] Differences in parasitemia percentage between treated groups and untreated animals were analysed by a one-way ANOVA test using IBM SPSS Statistics 16.0 and differences considered significant if P < 0.05. […] Percentinhibitionactivity=100–Meanparasitemia/control×100
Untreated control mice typically died approximately one week after infection. […] The mean survival time was calculated in comparison to untreated (Normal saline) and standard drug (artemisinin) treated groups. Differences in survival time between treated groups and untreated animals were analysed by Log-rank (Mantel-Cox) test using GraphPad Prism 5 and differences considered significant if P <0.005. Observations concerning adverse effects due to the compounds were recorded.

[3] = artemisinin (A) : drug B ratio 1:4
[4] = artemisinin (A) : drug B ratio 2:3
[5] = artemisinin (A) : drug B ratio 3:2
[6] = artemisinin (A) : drug B ratio 4:1
[7] = ratio A:B 1:4, combined with artemisinin (drug A)
[8] = ratio A:B 2:3, combined with artemisinin (drug A)
[9] = ratio A:B 3:2, combined with artemisinin (drug A)
[10] = ratio A:B 4:1, combined with artemisinin (drug A)
[11] = P. falciparum 3D7, in vitro, read-out: IC50 (equivalent in μM)
[12] = fluoroquinolones in clinical use, reported values, read-out: reported IC50 against 3D7 strain of P. falciparum in vitro

Compound	interaction (class from Σ FICs) [1, 3]	Σ FICs [1, 3]	interaction (class from Σ FICs) [1, 4]	Σ FICs [1, 4]	interaction (class from Σ FICs) [1, 5]	Σ FICs [1, 5]	interaction (class from Σ FICs) [1, 6]	Σ FICs [1, 6]	antiplasmodial interaction with artemisinin (in words) [1]	Drug B Mean FIC50 ± SE ([1]; ratio A:B 0:5, drug B alone)	Drug B Mean FIC50 ± SE [1, 7]	Drug B Mean FIC50 ± SE [1, 8]	Drug B Mean FIC50 ± SE [1, 9]	Drug B Mean FIC50 ± SE [1, 10]	Therapeutic Index (TI) = LD50/ED50 (BALB/c mice)	IC50 (host cell) [µM]	IC50 (inhibited the parasite multiplication rate to 50%) ± SE ([2]; P. falciparum 3D7, in vitro) [µg/mL]	IC50 [2, 11] [µM]	Mean ED50 ± SE (Plasmodium berghei ANKA)	IC50 [2, 12] [µM]	further results
CCOC(=O)c1cn(CC#N)c2cc(Cl)c(F)cc2c1=O [Compound 10]	SYN (ƩFIC <1 represents synergism)	0.58	ADD (ƩFIC > = 1 and <2 represents additive interaction)	1.01	SYN (ƩFIC <1 represents synergism)	0.80	SYN (ƩFIC <1 represents synergism)	0.76	highly synergistic interactions; also recorded: synergistic antiplasmodial interaction in three of the four fixed-ratio combinations evaluated and additive in the remaining one	0.93 ± 0.04	0.41 ± 0.03	0.53 ± 0.03	0.22 ± 0.02	0.15 ± 0.02	346.32	143	2.56 ± 0.30 (≈ 8.29 µM)	8.69	2.31 mg/kg BW and 2.31 ± 0.19 mg/kg BW		Mean ƩFIC ± SD [1]: 0.788 ± 0.177
CCOC(=O)c1cn(Cc2c[nH]nn2)c2cc(Cl)c(F)cc2c1=O [Compound 12]	SYN (ƩFIC <1 represents synergism)	0.56	ADD (ƩFIC > = 1 and <2 represents additive interaction)	1.27	SYN (ƩFIC <1 represents synergism)	0.83	SYN (ƩFIC <1 represents synergism)	0.78	highly synergistic interactions	1.11 ± 0.08	0.32 ± 0.01	0.77 ± 0.03	0.23 ± 0.02	0.15 ± 0.003	258.90	171	1.33 ± 0.67 (≈ 3.79 µM)	3.79	3.09 mg/kg BW and 3.09 ± 0.22 mg/kg BW		antiplasmodial interaction with artemisinin (in words) ([1]; listed as compound 12): synergistic interaction in three combinations and additive in one
CCOC(=O)c1cn(Cc2cccc(Cl)c2)c2cc(Cl)c(F)cc2c1=O [Compound 18]	SYN (ƩFIC <1 represents synergism)	0.55	ADD (ƩFIC > = 1 and <2 represents additive interaction)	1.15	ADD (ƩFIC > = 1 and <2 represents additive interaction)	1.02	SYN (ƩFIC <1 represents synergism)	0.73	synergistic in two combinations, while additive in the other two	0.97 ± 0.08	0.33 ± 0.02	0.66 ± 0.03	0.47 ± 0.03	0.16 ± 0.01	307.69	129	2.73 ± 0.23 (≈ 6.92 µM)	6.93	2.60 mg/kg BW and 2.60 ± 0.18 mg/kg BW		
CCn1cc(C(=O)O)c(=O)c2cc(F)c(N3CCNCC3)cc21 [Norfloxacin, norfloxacin, reference compound]	SYN (ƩFIC <1 represents synergism)	0.74	ADD (ƩFIC > = 1 and <2 represents additive interaction)	1.53	SYN (ƩFIC <1 represents synergism)	0.81	ADD (ƩFIC > = 1 and <2 represents additive interaction)	1.36	synergistic interaction in two combinations, while additive in the remaining two	0.98 ± 0.04	0.60 ± 0.02	0.87 ± 0.03	0.52 ± 0.04	0.45 ± 0.02						53.9	Mean ƩFIC ± SD [1]: 1.11 ± 0.394
NC1CCN(c2c(F)cc3c(=O)c(C(=O)O)cn(C4CC4)c3c2Cl)C1 (stereo not drawn) [clinafloxacin, reference compound]																				37.5	
CCn1cc(C(=O)O)c(=O)c2cc(F)c(N3CCNCC3)nc21 [enoxacin, reference compound]																				121	
CC1COc2c(N3CCN(C)CC3)c(F)cc3c(=O)c(C(=O)O)cn1c23 (stereo not drawn) [ofloxacin, reference compound]																				152	
